Residues, ends and D or L forms follow the SMILES beside them.
biological target: human NMUR2 receptor (Homo sapiens, UniProt Q9GZQ4); experiment: Radioligand binding competition assay (RLB), human NMUR2 receptor binding (SPA, [125I]-Neuromedin U-25); parameters: host or cells: CHO-K1; settings: CHO-K1 hNMUR2 cell membranes, 4 hours at RT
From the text: Example 1: Radioligand Binding Competition Assay (RLB) Human NMUR2 Receptor Binding
The test is based on membranes prepared from a Human NMUR2/Apoaequorin Stable Cell Line (Creative Biogene, Cat. No. CSC-RG1309).
Cell Line Description: CHO-NMUR2 cell line is clonally derived from a CHO-K1 cell line, which has been transfected with a bicistronic expression plasmid containing the sequence coding for the human neuromedin U receptor 2 (AF242874.1). MOSAIC-ID: CL16550616.
Membrane preparation: Cells were broken by nitrogen cavitation (900 psi, 1 hour). Intact cells were removed by centrifugation (400 rcf (relative centrifugal force), 10 minutes, 4° C.) before the crude membrane fraction was collected by ultracentrifugation (20.000 rcf, 1 hour, 4° C.).
2) Human NMUR2 Receptor Binding Assay (Radioligand: [125I]-Neuromedin U-25 (Human))
In this Scintillation Proximity Assay (SPA) design, the membranes immobilize directly to the PVT-WGA-PEI type A beads (polyethyleneimine treated polyvinyltoluene beads coupled to wheatgerm agglutinin, Perkin Elmer) via interactions of wheat germ agglutinate and glycosylated membrane structures. Thereby the radioactively la-belled ligand, bound to NMUR2 receptors on the membrane, comes in close proximity to the solid scintillator of the PVT bead. Radioactive human neuromedin U-25 then stimulates the scintillant to emit light. In contrast, radioligand not bound to the receptor is too distant from the bead to elicit a signal.
For the Scintillation Proximity Assay the CHO-K1 hNMUR2 cell membranes and SPA-beads are diluted to concentrations, which assure a robust signal to background ratio. The SPA incubation buffer consists of 25 mM Hepes (pH=7.0), 5 mM MgCl2, 1 mM CaCl2, 10 ug/mL Saponine and 0.1% bovine serum albumin and is used for all dilutions.
Final assay setup in 96-well plate: 20 μL of 10× test compound dilutions+40 μL of 5× [125l]-Neuromedin U-25 (1× approx. 30 pM; 2000 μCi/mmol)+60 μL membrane dilution (approx. 2.5 μg membrane protein)+80 μL SPA bead dilution (0.75 mg).
The assay is incubated for 4 hours at RT, including controls for specific binding where no displacer is added and non-specific binding by adding unlabeled hNMU-25 at 100 nM. Bound radioactivity is determined by scintillation counting (MicroBeta Trilux 1450, Perkin Elmer, detection of 125I decay). […] The system assumes one binding site with no relevant radioligand depletion (<10%) and that the binding is reversible and at equilibrium.

Sequence of human NMUR2 receptor (Q9GZQ4 whole entry): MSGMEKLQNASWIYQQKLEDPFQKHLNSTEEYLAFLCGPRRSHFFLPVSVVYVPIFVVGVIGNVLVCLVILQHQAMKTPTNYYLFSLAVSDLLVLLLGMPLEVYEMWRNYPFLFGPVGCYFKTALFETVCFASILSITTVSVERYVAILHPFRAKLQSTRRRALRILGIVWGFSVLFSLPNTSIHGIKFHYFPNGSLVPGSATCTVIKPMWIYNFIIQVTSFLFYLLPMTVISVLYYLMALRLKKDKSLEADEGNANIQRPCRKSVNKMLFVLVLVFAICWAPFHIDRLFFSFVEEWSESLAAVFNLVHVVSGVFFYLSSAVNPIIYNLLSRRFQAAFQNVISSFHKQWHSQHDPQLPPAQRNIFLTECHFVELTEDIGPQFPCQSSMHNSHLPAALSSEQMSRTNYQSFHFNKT

SMILES | Ki [nM]
CCCC[C@H](NC(=O)[C@H](CC(C)C)N(C)C(=O)[C@H](Cc1ccccc1)NC(=O)[C@H](Cc1ccc(O)cc1)NC(=O)CN1CCN(CCNC(=O)CN(C)C(=O)CN(C)C(=O)CN(C)C(=O)CN(C)C(=O)CN(C)C(=O)CN(C)C(=O)CN(C)C(=O)CN(C)C(=O)CN(C)C(=O)CN(C)C(=O)CN(C)C(=O)CN(C)C(=O)CN(C)C(=O)CN(C)C(=O)CN(C)C(=O)CC[C@H](NC(=O)CC[C@H](NC(=O)CC[C@H](NC(=O)CCCCCCCCCCCCCCCCC(=O)O)C(=O)O)C(=O)O)C(=O)O)CC1)C(=O)N[C@@H](CCCNC(=N)N)C(=O)N(C)[C@@H](C)C(=O)N[C@@H](CCCNC(=N)N)C(=O)NCC(N)=O [Compound 11, C18DA-gGlu3-Sar15-AEPipAc-Tyr-Phe-NMeLeu-Nle-Arg-NMeAla-Arg-Gly-NH2] (HELM PEPTIDE1{[O=C(O)CCCCCCCCCCCCCCCCC(=O)[*:2]].[gGlu].[gGlu].[gGlu].[Sar].[Sar].[Sar].[Sar].[Sar].[Sar].[Sar].[Sar].[Sar].[Sar].[Sar].[Sar].[Sar].[Sar].[Sar].[O=C(CN1CCN(CCN[*:1])CC1)[*:2]].Y.F.[meL].[Nle].R.[meA].R.G.[am]}$$$$V2.0) | 76.3
CCCC[C@H](NC(=O)[C@H](CC(C)C)N(C)C(=O)[C@H](Cc1ccccc1)NC(=O)[C@H](Cc1ccc(O)cc1)NC(=O)CN1CCN(CCNC(=O)CN(C)C(=O)CN(C)C(=O)CN(C)C(=O)CN(C)C(=O)CN(C)C(=O)CN(C)C(=O)CN(C)C(=O)CN(C)C(=O)CN(C)C(=O)CN(C)C(=O)CN(C)C(=O)CN(C)C(=O)CC[C@H](NC(=O)CC[C@H](NC(=O)CC[C@H](NC(=O)CCCCCCCCCCCCCCCCC(=O)O)C(=O)O)C(=O)O)C(=O)O)CC1)C(=O)N[C@@H](CCN)C(=O)N1CCC[C@H]1C(=O)N[C@@H](CCCNC(=N)N)C(=O)NCC(N)=O [Compound 27, C18DA-gGlu3-Sar12-AEPipAc-Tyr-Phe-NMeLeu-Nle-Dbu-Pro-Arg-Gly-NH2] | 23.4
CCCC[C@H](NC(=O)[C@H](CC(C)C)N(C)C(=O)[C@H](Cc1ccccc1)NC(=O)[C@H](Cc1ccc(O)cc1)NC(=O)CN1CCN(CCNC(=O)CN(C)C(=O)CN(C)C(=O)CN(C)C(=O)CN(C)C(=O)CN(C)C(=O)CN(C)C(=O)CN(C)C(=O)CN(C)C(=O)CN(C)C(=O)CN(C)C(=O)CN(C)C(=O)CN(C)C(=O)CN(C)C(=O)CN(C)C(=O)CN(C)C(=O)CC[C@H](NC(=O)CC[C@H](NC(=O)CC[C@H](NC(=O)CCCCCCCCCCCCCCCCC(=O)O)C(=O)O)C(=O)O)C(=O)O)CC1)C(=O)N[C@@H](CCCN)C(=O)N1CCC[C@H]1C(=O)N[C@@H](CCCNC(=N)N)C(=O)NCC(N)=O [Compound 21, C18DA-gGlu3-Sar15-AEPipAc-Tyr-Phe-NMeLeu-Nle-Orn-Pro-Arg-Gly-NH2] (HELM PEPTIDE1{[O=C(O)CCCCCCCCCCCCCCCCC(=O)[*:2]].[gGlu].[gGlu].[gGlu].[Sar].[Sar].[Sar].[Sar].[Sar].[Sar].[Sar].[Sar].[Sar].[Sar].[Sar].[Sar].[Sar].[Sar].[Sar].[O=C(CN1CCN(CCN[*:1])CC1)[*:2]].Y.F.[meL].[Nle].[Orn].P.R.G.[am]}$$$$V2.0) | 55.9

Reference: US20240279278A1, “NMU RECEPTOR 2 AGONISTS” (Boehringer Ingelheim International GmbH, priority 2023, published 2024)
